Reference: the CheMixHub ionic liquid set

Assay: xn = mol fraction of the nth substance listed

CC[n+]1ccn(C)c1.N#C[N-]C#N + OCC(F)(F)F + CCO
viscosity [mPa·s], 100 kPa
Settings	298.15 K	303.15 K	308.15 K	313.15 K	318.15 K
x1 = 0.0355, x2 = 0.8508	–	0.27	0.22	0.16	0.15
x1 = 0.0692, x2 = 0.8058	0.93	0.78	0.7	0.61	0.57
x1 = 0.1059, x2 = 0.7569	1.52	1.32	1.19	1.07	1
x1 = 0.1341, x2 = 0.7174	1.96	1.71	1.55	1.41	1.31
x1 = 0.1703, x2 = 0.668	2.49	2.19	1.99	1.82	–
x1 = 0.2026, x2 = 0.6226	2.94	2.59	2.36	2.16	–
x1 = 0.2373, x2 = 0.574	3.4	3.01	2.74	2.51	–
x1 = 0.2705, x2 = 0.5266	3.82	3.39	3.09	2.82	–
x1 = 0.3059, x2 = 0.4761	4.24	3.77	3.43	3.14	–
x1 = 0.3367, x2 = 0.4558	4.59	4.1	3.72	3.39	–
x1 = 0.3741, x2 = 0.4288	5	4.47	4.05	3.69	–
x1 = 0.4093, x2 = 0.4055	5.37	4.8	4.35	3.95	–
x1 = 0.4361, x2 = 0.3894	5.63	5.04	4.56	4.14	–
x1 = 0.4751, x2 = 0.3581	6.01	5.38	4.86	4.41	–
x1 = 0.5091, x2 = 0.3393	6.33	5.67	5.11	4.62	–
x1 = 0.539, x2 = 0.314	6.6	5.91	5.32	4.81	–
x1 = 0.576, x2 = 0.2854	6.92	6.19	5.57	5.03	–
x1 = 0.6046, x2 = 0.2689	7.16	6.41	5.75	5.19	–
x1 = 0.6344, x2 = 0.2517	7.42	6.62	5.94	5.36	–
x1 = 0.673, x2 = 0.2236	7.74	6.9	6.18	5.57	–
x1 = 0.7094, x2 = 0.2009	8.04	7.15	6.4	5.77	–
x1 = 0.7331, x2 = 0.1948	8.23	7.31	6.54	5.9	–
x1 = 0.7722, x2 = 0.1661	8.55	7.57	6.77	6.11	–
x1 = 0.8061, x2 = 0.1434	8.84	7.79	6.97	6.29	–

CCCC[n+]1ccn(C)c1.F[B-](F)(F)F + OCCO
298.15 K, 100 kPa, x1 = 1
Settings	electrical conductivity [S/m]	viscosity [mPa·s]
–	0.243	104.7

CCCC[n+]1ccn(C)c1.F[B-](F)(F)F + OCCOCCOCCOCCO
Settings	viscosity [mPa·s]
298.15 K, 101 kPa, x2 = 0	94.4

CCCC[n+]1ccn(C)c1.O=C([O-])C(F)(F)F + OCCOCCOCCOCCO
298.15 K, 101 kPa
Settings	viscosity [mPa·s]
x2 = 0	71.1
x2 = 0.5	71

CCCCCCCCn1cc[n+](C)c1.O=S(=O)([N-]S(=O)(=O)C(F)(F)F)C(F)(F)F + c1ccccc1
293 K, 101 kPa
Settings	viscosity [mPa·s]
x1 = 0.2	7.34
x1 = 0.6	46.2

CCCC[n+]1ccn(C)c1.F[B-](F)(F)F + c1ccncc1
298.15 K, 101 kPa, x2 = 0
Settings	electrical conductivity [S/m]	viscosity [mPa·s]
–	0.194	116
